In PubChem BioAssay (NCI):
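A five-concentration, 48-hour dose response in 96-well plates underlies each endpoint, interpolated linearly between surrounding concentrations. The concentration for 50% growth inhibition is given as GI50. Definition used: TGI = concentration required for complete inhibition of growth.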

What was measured:
Assay in all cases: growth of human tumour cells (NCI), 48 h
[1] = system: 786-0 renal
[2] = system: A498 renal
[3] = system: A549 NSCLC
[4] = system: ACHN renal
[5] = system: BT-549 breast
[6] = system: CAKI-1 renal
[7] = system: CCRF-CEM leukemia
[8] = system: COLO 205 colon
[9] = system: DU-145 prostate
[10] = system: EKVX NSCLC
[11] = system: HCT-116 colon
[12] = system: HCT-15 colon
[13] = system: HOP-62 NSCLC
[14] = system: HOP-92 NSCLC
[15] = system: HS 578T breast
[16] = system: HT29 colon
[17] = system: IGROV1 ovarian
[18] = system: K-562 leukemia
[19] = system: KM12 colon
[20] = system: LOX IMVI melanoma
[21] = system: M14 melanoma
[22] = system: MALME-3M melanoma
[23] = system: MCF7 breast
[24] = system: MDA-MB-231 breast
[25] = system: MDA-MB-435
[26] = system: MOLT-4 leukemia
[27] = system: NCI-H226 lung
[28] = system: NCI-H23 lung
[29] = system: NCI-H460 lung
[30] = system: NCI-H522 lung
[31] = system: NCI/ADR-RES ovarian
[32] = system: OVCAR-3 ovarian
[33] = system: OVCAR-4 ovarian
[34] = system: OVCAR-5 ovarian
[35] = system: OVCAR-8 ovarian
[36] = system: PC-3 prostate
[37] = system: RPMI-8226 leukemia
[38] = system: RXF 393 renal
[39] = system: SF-268 CNS
[40] = system: SF-295 CNS
[41] = system: SF-539 CNS
[42] = system: SK-MEL-2 melanoma
[43] = system: SK-MEL-28 melanoma
[44] = system: SK-MEL-5 melanoma
[45] = system: SK-OV-3 ovarian
[46] = system: SN12C renal
[47] = system: SNB-19 CNS
[48] = system: SNB-75 CNS
[49] = system: SR leukemia
[50] = system: SW-620 colon
[51] = system: T-47D breast
[52] = system: TK-10 renal
[53] = system: U251 CNS
[54] = system: UACC-257 melanoma
[55] = system: UACC-62 melanoma
[56] = system: UO-31 renal

## O=C1Nc2ccccc2/C1=C\c1c(Cl)nc2sccn12
[1]
  GI50: 1.32 µM
  TGI: 4.94 µM
[2]
  GI50: 9.38 µM
  TGI: 22.4 µM
[3]
  GI50: 3.51 µM
  TGI: > 43.1 µM
[4]
  GI50: 3.12 µM
  TGI: 18.2 µM
[5]
  GI50: 1.15 µM
  TGI: 12.7 µM
[6]
  GI50: 1.22 µM
  TGI: 4.8 µM
[7]
  GI50: 2.68 µM
  TGI: 15.8 µM
[8]
  GI50: 1.11 µM
  TGI: 5.97 µM
[9]
  GI50: 5.75 µM
  TGI: 53.4 µM
[10]
  GI50: 1.88 µM
  TGI: 13.8 µM
[11]
  GI50: 1.94 µM
  TGI: 12.8 µM
[12]
  GI50: 1.18 µM
  TGI: 8.46 µM
[13]
  GI50: 1.82 µM
  TGI: 12.9 µM
[14]
  GI50: 4.31 µM
  TGI: 11.1 µM
[15]
  GI50: 4.14 µM
  TGI: 35.7 µM
[16]
  GI50: 1.32 µM
  TGI: > 32.2 µM
[17]
  GI50: 5.05 µM
  TGI: > 54.6 µM
[18]
  TGI: > 100 µM
[19]
  GI50: 0.67 µM
  TGI: 19.4 µM
[20]
  GI50: 3.45 µM
  TGI: 17.4 µM
[21]
  GI50: 2.02 µM
  TGI: 9.23 µM
[22]
  GI50: 5.48 µM
  TGI: > 44.7 µM
[23]
  GI50: 0.66 µM
  TGI: 17.3 µM
[24]
  GI50: 6.87 µM
  TGI: 22.8 µM
[25]
  GI50: 0.441 µM
  TGI: 1.11 µM
[26]
  GI50: 3.52 µM
  TGI: > 100 µM
[27]
  GI50: 6.11 µM
  TGI: 16 µM
[28]
  GI50: 4.7 µM
  TGI: 17.1 µM
[29]
  GI50: 2.76 µM
  TGI: 29.8 µM
[30]
  GI50: 3.9 µM
  TGI: 29.8 µM
[31]
  GI50: 1.26 µM
  TGI: 7.64 µM
[32]
  GI50: 1.36 µM
  TGI: 3.73 µM
[33]
  GI50: 13.9 µM
  TGI: > 61.4 µM
[34]
  GI50: 3.06 µM
  TGI: 9.39 µM
[35]
  GI50: 3.85 µM
  TGI: 35.8 µM
[36]
  GI50: 2.44 µM
  TGI: 23.9 µM
[37]
  GI50: 1.17 µM
  TGI: 4.48 µM
[38]
  GI50: 3.2 µM
  TGI: 19 µM
[39]
  GI50: 5.41 µM
  TGI: 29.5 µM
[40]
  GI50: 1.11 µM
  TGI: 3.24 µM
[41]
  GI50: 4.47 µM
  TGI: > 43.3 µM
[42]
  GI50: 4.16 µM
  TGI: > 41.2 µM
[43]
  GI50: 4.91 µM
  TGI: 26.8 µM
[44]
  GI50: 1.77 µM
  TGI: 8.51 µM
[45]
  GI50: 4.18 µM
  TGI: 10.8 µM
[46]
  GI50: 6.84 µM
  TGI: 20.6 µM
[47]
  GI50: 6.78 µM
  TGI: 37.7 µM
[48]
  GI50: 3.23 µM
  TGI: 8.34 µM
[49]
  GI50: 0.359 µM
  TGI: > 100 µM
[50]
  GI50: 3 µM
  TGI: > 58.9 µM
[51]
  GI50: 8.88 µM
  TGI: 33.9 µM
[52]
  GI50: 3.24 µM
  TGI: 8.21 µM
[53]
  GI50: 2.45 µM
  TGI: 8.31 µM
[54]
  GI50: 8.03 µM
  TGI: > 70.8 µM
[55]
  GI50: 1.34 µM
  TGI: 11.9 µM
[56]
  GI50: 2.69 µM
  TGI: 16.8 µM
